Measured values as given in a melting point compilation (Tetko et al.; mined from patent text by program, amines drawn as free bases though some values may be those of a salt).

| SMILES | melting point |
| --- | --- |
| Cc1nc(Sc2ncccc2C(=O)O)sc1CC(=O)O | 233 to 235 °C |
| CCOC(=O)c1cc2ccc(C(C)C)nc2s1 | 73 to 74 °C |
| Cc1cc(C(=O)c2ccccc2)c(OCCCCCCCCO)cc1N(C)C | 56.9 °C |
| CCOC(=O)c1cccnc1N | 90.5 to 92.5 °C |
| CC(C)Nc1cccnc1N1CCN(C(=O)c2ccc(C(=O)NC(C)(C)CO)cc2)CC1 | 113 to 115 °C |
| N#Cc1nn(-c2c(Cl)cc(C(F)(F)F)cc2Cl)c(N)c1-c1ccoc1 | 180 to 181 °C |
| CCCCCCc1cc(C(=O)O)c(C)o1 | 59 to 60 °C |
| CON1CCC2(CC1)C(O)=C(c1c(C)cc(C)cc1C)C(=O)N2C | 171 to 178 °C |
| O=C(Nc1cc(C(F)(F)F)on1)c1ccccc1 | 152 to 154 °C |
| CC(=O)NC(C)(C)CNc1c(C)c(C)n2nnnc2c1[N+](=O)[O-] | 200 to 202 °C |
| Cc1cc(OCCC[Si](C)(C)C)c(Cl)cc1N(C#N)C=N | 143 to 144 °C |
| CCCn1nc2c(N)nc3ccccc3c2c1CC(C)(C)NC(=O)NC(C)C | 190 to 191 °C |
| CCCCCc1c(C)nc(C)c(CO)c1-c1ccccc1 | 99 to 100 °C |
| CC1CC2(C)C(CCC3C4CCC(C5(C)OCCO5)C4(C)CC(=O)C32)CC1=O (centres undefined) | 168 to 169 °C |
| CCCCCC1(Cl)Cc2cc(OCC(=O)O)c(Cl)c(Cl)c2C1=O (centres undefined) | 122 to 124 °C |
| COC(OC)c1cc(C)nc(N)n1 | 69 to 71 °C |
| CSC(=S)NN=Cc1nc[nH]c1C | 180 °C |

Other lines, results leading:

| melting point | SMILES |
| --- | --- |
| 221 to 224 °C | Clc1ccc(CNc2nc(-c3nccc4ccccc34)nc3ccccc23)cc1 |
| 157 to 158 °C | COC(=O)c1cccc(-c2cc(-c3ccc(Cl)cc3)on2)c1 |
| 163 to 165 °C | CN1CCC(=O)N(c2cccc(Cl)c2Cl)C1=O |
| 109 to 110 °C | CSc1ccc(C(CC2CCCC2)C(=O)Nc2ccc([N+](=O)[O-])cn2)cc1C(F)(F)F (centres undefined) |
| 187 to 188 °C | Clc1cc(Cl)c2cccc3c2c1N=C3NCCCCn1ccnc1 |
| 144 to 147 °C | COc1ccc(C2(CNC(=O)Nc3c(C(C)C)cccc3C(C)C)CCCC2)cc1 |
| 182 to 184 °C | O=C(Oc1ccccc1)C1c2ccccc2Oc2ccc(O)cc21 (centres undefined) |
| 236 °C | N#Cc1c(Cl)c2cc(F)ccc2n(Cc2ccc(F)cc2)c1=O |
| 197 to 199 °C | O=C1NCCc2ccc(OCCCCN3CCN(c4cccc(Cl)c4Cl)CC3)nc2N1 |
| > 260 °C | COc1ccc2c(NC(N)=O)c(C(=O)Nc3ccc(Cl)cc3Cl)oc2c1 |
| 148 to 150 °C | CS(=O)(=O)c1ccc(C2=C(c3ccccc3)C(=NOCc3ccccc3)C2)cc1 |
| 147 to 149 °C | CN1C(c2ccccc2)CC(=O)CC1c1ccccc1 (centres undefined) |
| 76 °C | CC1(C)COc2ccc(OC(F)(F)F)cc2C(O)(c2ccccn2)C1 (centres undefined) |
| 226 to 229 °C | CCNCC1CN(c2c(F)cc3c(=O)c(C(=O)O)cn(-c4ccc(F)cc4F)c3c2F)CCO1 (centres undefined) |
| 207 to 209 °C | Cc1ccc(-n2c(-c3cc(-c4ccccc4)c(N4CCOCC4)s3)nc3ccccc3c2=O)cc1 |
| 113 to 114 °C | COC(=O)c1ccc(C#CC(=O)c2ccc3c(c2)C(C)(C)CCC3(C)C)cc1 |
| 71 to 72 °C | Cc1ccc(-n2ccc(C=O)c2)cc1 |
| 181 to 183 °C | CN(Cc1cc2c(=O)c(C(=O)NCc3ccc(Cl)cc3)cn(C)c2s1)C[C@@H](O)c1ccc([N+](=O)[O-])cc1 |
| 66 to 68 °C | Cc1cc(OCc2ccccc2)c(C)c([N+](=O)[O-])c1 |
| 80 °C | CC(C)(C)OC(=O)c1ccc(OCCNC(=O)C2Cc3ccccc3N2S(=O)(=O)c2ccc(-c3ccc(F)cc3F)cc2)cc1 (centres undefined) |
| 208 to 210 °C | CCOc1ccc(-c2ccc3c(c2)C=C(C(=O)Nc2ccc(CO)cc2)CCO3)cc1 |
| 77 °C | COC(=O)CCCCc1cc2cc(C(F)(F)F)ccc2n1S(=O)(=O)c1cccc(C(C)(C)C)c1 |
